Experimental data: ChEMBL document CHEMBL1201861, “Genomics of Drug Sensitity in Cancer screening data, Wellcome Trust Sanger Institute”

What was measured:
BC1 cell line = assay: SANGER: Inhibition of human BC-1 cell growth in a cell viability assay.; type: functional, cell-based; conditions: Homo sapiens, BC1
NB14 = assay: cells; type: functional, cell-based, Homo sapiens; conditions: Homo sapiens, NB14;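 note: growth inhibition of NB14 cells measured with a cell viability assay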
Description: SANGER: Inhibition of human NB14 cell growth in a cell viability assay.

CESS = assay: SANGER: Inhibition of human CESS cell growth in a cell viability assay.; type: functional, cell-based; conditions: Homo sapiens, CESS
KMOE-2 = assay: cells; type: functional, cell-based, Homo sapiens; conditions: Homo sapiens, KMOE-2;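 note: growth inhibition of human KMOE-2 cells, read out with a cell viability assay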
Description: SANGER: Inhibition of human KMOE-2 cell growth in a cell viability assay.

DG-75 = assay: cells; type: functional, cell-based, Homo sapiens; conditions: Homo sapiens, DG-75;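 note: growth inhibition of DG-75 cells, read out with a cell viability assay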
Description: SANGER: Inhibition of human DG-75 cell growth in a cell viability assay.

TE-441-T = assay: cells; type: functional, cell-based, Homo sapiens; conditions: Homo sapiens, TE-441-T
Description: SANGER: Inhibition of human TE-441-T cell growth in a cell viability assay.

LC-1F = assay: cells; type: functional, cell-based, Homo sapiens; conditions: Homo sapiens, LC-1F;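 note: growth inhibition of human LC-1F cells, read out with a cell viability assay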
Description: SANGER: Inhibition of human LC-1F cell growth in a cell viability assay.

NCI-H1522 = assay: cells; type: functional, cell-based, Homo sapiens; conditions: Homo sapiens, NCI-H1522;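 note: growth inhibition of NCI-H1522 cells, read out with a cell viability assay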
Description: SANGER: Inhibition of human NCI-H1522 cell growth in a cell viability assay.

K052 = assay: cells; type: functional, cell-based, Homo sapiens; conditions: Homo sapiens, K052;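 note: Read-out from a cell viability assay, IC50 reflecting suppression of K052 cell growth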
Description: SANGER: Inhibition of human K052 cell growth in a cell viability assay.

MDA-MB-134-VI = assay: cells; type: functional, cell-based, Homo sapiens; conditions: Homo sapiens, MDA-MB-134-VI
Description: SANGER: Inhibition of human MDA-MB-134-VI cell growth in a cell viability assay.

LB647-SCLC = assay: cells; type: functional, cell-based, Homo sapiens; conditions: Homo sapiens, LB647-SCLC;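 note: cell growth inhibition, read out by a viability assay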
Description: SANGER: Inhibition of human LB647-SCLC cell growth in a cell viability assay.

MONO-MAC-6 = assay: cells; type: functional, cell-based, Homo sapiens; conditions: Homo sapiens, MONO-MAC-6;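 note: cell viability assay measuring growth inhibition of human MONO-MAC-6 cells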
Description: SANGER: Inhibition of human MONO-MAC-6 cell growth in a cell viability assay.

BOKU = assay: cells; type: functional, cell-based; conditions: Homo sapiens;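 note: growth inhibition of the human BOKU cell line, read out by a cell viability assay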
Description: SANGER: Inhibition of human BOKU cell growth in a cell viability assay.

LOUCY = assay: cells; type: functional, cell-based, Homo sapiens; conditions: Homo sapiens, LOUCY;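 note: growth inhibition of human LOUCY cells, read out with a cell viability assay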
Description: SANGER: Inhibition of human LOUCY cell growth in a cell viability assay.

Raji = assay: cells; type: functional, cell-based, Homo sapiens; conditions: Homo sapiens, Raji;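 note: cell viability assay measuring inhibition of Raji cell growth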
Description: SANGER: Inhibition of human Raji cell growth in a cell viability assay.

SCC-3 = assay: cells; type: functional, cell-based, Homo sapiens; conditions: Homo sapiens, SCC-3;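 note: cell viability assay measuring inhibition of SCC-3 cell growth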
Description: SANGER: Inhibition of human SCC-3 cell growth in a cell viability assay.

NCI-H64 = assay: cells; type: functional, cell-based, Homo sapiens; conditions: Homo sapiens, NCI-H64;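 note: growth inhibition of NCI-H64 cells, read out with a cell viability assay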
Description: SANGER: Inhibition of human NCI-H64 cell growth in a cell viability assay.

ARH-77 = assay: cells; type: functional, cell-based, Homo sapiens; conditions: Homo sapiens, ARH-77;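 note: growth inhibition of ARH-77 cells, read out by a cell viability assay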
Description: SANGER: Inhibition of human ARH-77 cell growth in a cell viability assay.

THP-1 = assay: cells; type: functional, cell-based, Homo sapiens; conditions: Homo sapiens, THP-1;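 note: growth inhibition of THP-1 cells, read out via a cell viability assay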
Description: SANGER: Inhibition of human THP-1 cell growth in a cell viability assay.

ECC4 = assay: cells; type: functional, cell-based, Homo sapiens; conditions: Homo sapiens, ECC4;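 note: growth inhibition of ECC4 cells, read out with a cell viability assay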
Description: SANGER: Inhibition of human ECC4 cell growth in a cell viability assay.

LC4-1 = assay: cells; type: functional, cell-based, Homo sapiens; conditions: Homo sapiens, LC4-1;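 note: growth inhibition of LC4-1 cells, read out with a cell viability assay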
Description: SANGER: Inhibition of human LC4-1 cell growth in a cell viability assay.

MOLT-13 = assay: cells; type: functional, cell-based; conditions: Homo sapiens;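 note: IC50 for suppression of MOLT-13 cell growth, read out with a cell viability assay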
Description: SANGER: Inhibition of human MOLT-13 cell growth in a cell viability assay.

| SMILES | IC50 (BC1 cell line) [µM] | IC50 (NB14) [µM] | IC50 (CESS) [µM] | IC50 (KMOE-2) [µM] | IC50 (DG-75) [µM] | IC50 (TE-441-T) [µM] | IC50 (LC-1F) [µM] | IC50 (NCI-H1522) [µM] | IC50 (K052) [µM] | IC50 (MDA-MB-134-VI) [µM] | IC50 (LB647-SCLC) [µM] | IC50 (MONO-MAC-6) [µM] | IC50 (BOKU) [µM] | IC50 (LOUCY) [µM] | IC50 (Raji) [µM] | IC50 (SCC-3) [µM] | IC50 (NCI-H64) [µM] | IC50 (ARH-77) [µM] | IC50 (THP-1) [µM] | IC50 (ECC4) [µM] | further results |
| --- | --- | --- | --- | --- | --- | --- | --- | --- | --- | --- | --- | --- | --- | --- | --- | --- | --- | --- | --- | --- | --- |
| Cc1cc(N2CCOCC2)cc2[nH]c(-c3c(NC[C@@H](O)c4cccc(Cl)c4)cc[nH]c3=O)nc12 | > 5.12 | > 5.12 | > 5.12 | > 5.12 | > 5.12 | > 5.12 | > 5.12 | > 5.12 | > 5.12 | > 5.12 | > 5.12 | 0.608 | 3.15 | > 5.12 | > 5.12 | > 5.12 | > 5.12 | 2.8 | > 5.12 | > 5.12 | IC50 (LC4-1): > 5.12 µM; IC50 (MOLT-13): > 5.12 µM |
| Cc1ccc(NC(=O)c2ccc(CN3CCN(C)CC3)cc2)cc1Nc1nccc(-c2cccnc2)n1 [IMATINIB] | > 2 | > 2 | > 2 | > 2 | > 2 | > 2 | > 2 | > 2 | > 2 | > 2 | > 2 | > 2 | > 2 | > 2 | > 2 | > 2 | > 2 | > 2 | > 2 | > 2 | IC50 (LC4-1): > 2 µM; IC50 (MOLT-13): > 2 µM |
